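48-hour exposure; five concentrations; linearly interpolated endpoints. GI50 marks 50% less growth. TGI: total growth inhibition.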
Columns and labels:
Test in all cases: DTP human tumour cell line panel, 48 h
786-0 renal = system: 786-0 renal
A498 renal = system: A498 renal
A549 NSCLC = system: A549 NSCLC
ACHN renal = system: ACHN renal
BT-549 breast = system: BT-549 breast
CAKI-1 renal = system: CAKI-1 renal
CCRF-CEM leukemia = system: CCRF-CEM leukemia
COLO 205 colon = system: COLO 205 colon
DU-145 prostate = system: DU-145 prostate
EKVX NSCLC = system: EKVX NSCLC
HCC-2998 colon = system: HCC-2998 colon
HCT-116 colon = system: HCT-116 colon
HCT-15 colon = system: HCT-15 colon
HL-60(TB) leukemia = system: HL-60(TB) leukemia
HOP-62 NSCLC = system: HOP-62 NSCLC
HOP-92 NSCLC = system: HOP-92 NSCLC
HS 578T breast = system: HS 578T breast
HT29 colon = system: HT29 colon
IGROV1 ovarian = system: IGROV1 ovarian
K-562 leukemia = system: K-562 leukemia
KM12 colon = system: KM12 colon
LOX IMVI melanoma = system: LOX IMVI melanoma
M14 melanoma = system: M14 melanoma
MALME-3M melanoma = system: MALME-3M melanoma
MCF7 breast = system: MCF7 breast
MDA-MB-231 breast = system: MDA-MB-231 breast
MDA-MB-435 = system: MDA-MB-435
MOLT-4 leukemia = system: MOLT-4 leukemia
NCI-H226 lung = system: NCI-H226 lung
NCI-H23 lung = system: NCI-H23 lung
NCI-H460 lung = system: NCI-H460 lung
NCI-H522 lung = system: NCI-H522 lung
NCI/ADR-RES ovarian = system: NCI/ADR-RES ovarian
OVCAR-4 ovarian = system: OVCAR-4 ovarian
OVCAR-5 ovarian = system: OVCAR-5 ovarian
OVCAR-8 ovarian = system: OVCAR-8 ovarian
PC-3 prostate = system: PC-3 prostate
RPMI-8226 leukemia = system: RPMI-8226 leukemia
RXF 393 renal = system: RXF 393 renal
SF-268 CNS = system: SF-268 CNS
SF-295 CNS = system: SF-295 CNS
SF-539 CNS = system: SF-539 CNS
SK-MEL-2 melanoma = system: SK-MEL-2 melanoma
SK-MEL-28 melanoma = system: SK-MEL-28 melanoma
SK-MEL-5 melanoma = system: SK-MEL-5 melanoma
SK-OV-3 ovarian = system: SK-OV-3 ovarian
SN12C renal = system: SN12C renal
SNB-19 CNS = system: SNB-19 CNS
SNB-75 CNS = system: SNB-75 CNS
SR leukemia = system: SR leukemia
SW-620 colon = system: SW-620 colon
T-47D breast = system: T-47D breast
TK-10 renal = system: TK-10 renal
U251 CNS = system: U251 CNS
UACC-257 melanoma = system: UACC-257 melanoma
UACC-62 melanoma = system: UACC-62 melanoma
UO-31 renal = system: UO-31 renal

## Oc1cccc2ccc(-c3nnc(SCc4ccc(O)c5ncccc45)n3-c3ccccc3)nc12
786-0 renal
  GI50: 0.759 µM
  TGI: 11.7 µM
A498 renal
  GI50: 1.81 µM
  TGI: > 31 µM
A549 NSCLC
  GI50: 0.651 µM
  TGI: > 35.8 µM
ACHN renal
  GI50: 0.419 µM
  TGI: 2.44 µM
BT-549 breast
  GI50: 0.419 µM
  TGI: > 21.7 µM
CAKI-1 renal
  GI50: 0.518 µM
  TGI: 7.25 µM
CCRF-CEM leukemia
  GI50: 0.411 µM
  TGI: > 63.7 µM
COLO 205 colon
  GI50: 4.36 µM
  TGI: > 100 µM
DU-145 prostate
  GI50: 0.58 µM
  TGI: > 100 µM
EKVX NSCLC
  GI50: 0.788 µM
  TGI: > 26.4 µM
HCC-2998 colon
  GI50: 0.612 µM
  TGI: > 100 µM
HCT-116 colon
  GI50: 0.324 µM
  TGI: 9.38 µM
HCT-15 colon
  GI50: 0.323 µM
  TGI: > 37.1 µM
HL-60(TB) leukemia
  GI50: 0.369 µM
HOP-62 NSCLC
  GI50: 0.519 µM
  TGI: 6.84 µM
HOP-92 NSCLC
  GI50: 0.257 µM
  TGI: 0.94 µM
HS 578T breast
  GI50: 0.398 µM
  TGI: 6.24 µM
HT29 colon
  GI50: 7.4 µM
  TGI: > 100 µM
IGROV1 ovarian
  GI50: 0.735 µM
  TGI: 11.5 µM
K-562 leukemia
  GI50: 0.339 µM
  TGI: > 100 µM
KM12 colon
  GI50: 0.507 µM
  TGI: > 100 µM
LOX IMVI melanoma
  GI50: 0.556 µM
  TGI: 7.94 µM
M14 melanoma
  GI50: 0.476 µM
  TGI: 3.5 µM
MALME-3M melanoma
  GI50: 0.599 µM
  TGI: 5 µM
MCF7 breast
  GI50: 0.325 µM
  TGI: > 35.3 µM
MDA-MB-231 breast
  GI50: 0.996 µM
  TGI: 16.2 µM
MDA-MB-435
  GI50: 0.441 µM
  TGI: > 73.8 µM
MOLT-4 leukemia
  GI50: 0.459 µM
  TGI: > 47.4 µM
NCI-H226 lung
  GI50: 3.04 µM
  TGI: > 50.8 µM
NCI-H23 lung
  GI50: 0.533 µM
  TGI: > 33.5 µM
NCI-H460 lung
  GI50: 0.311 µM
  TGI: 1.56 µM
NCI-H522 lung
  GI50: 0.456 µM
  TGI: 11.9 µM
NCI/ADR-RES ovarian
  GI50: 0.356 µM
  TGI: 6.33 µM
OVCAR-4 ovarian
  GI50: 0.672 µM
  TGI: 9.21 µM
OVCAR-5 ovarian
  GI50: 3.43 µM
  TGI: > 81.1 µM
OVCAR-8 ovarian
  GI50: 0.408 µM
  TGI: 11.9 µM
PC-3 prostate
  GI50: 0.391 µM
  TGI: > 37.8 µM
RPMI-8226 leukemia
  GI50: 0.437 µM
  TGI: > 100 µM
RXF 393 renal
  GI50: 0.744 µM
  TGI: 19.1 µM
SF-268 CNS
  GI50: 0.471 µM
  TGI: > 73.9 µM
SF-295 CNS
  GI50: 0.46 µM
  TGI: 11.9 µM
SF-539 CNS
  GI50: 0.43 µM
  TGI: 3.41 µM
SK-MEL-2 melanoma
  GI50: 0.54 µM
  TGI: 5.71 µM
SK-MEL-28 melanoma
  GI50: 0.533 µM
  TGI: > 100 µM
SK-MEL-5 melanoma
  GI50: 0.579 µM
SK-OV-3 ovarian
  GI50: 0.529 µM
  TGI: 4.89 µM
SN12C renal
  GI50: 0.448 µM
  TGI: 18.3 µM
SNB-19 CNS
  GI50: 0.425 µM
  TGI: > 44.1 µM
SNB-75 CNS
  GI50: 0.279 µM
  TGI: 4.42 µM
SR leukemia
  GI50: 0.385 µM
  TGI: > 50.8 µM
SW-620 colon
  GI50: 0.403 µM
  TGI: > 35.7 µM
T-47D breast
  GI50: 0.38 µM
  TGI: 2.57 µM
TK-10 renal
  GI50: 0.428 µM
  TGI: 7.28 µM
U251 CNS
  GI50: 0.293 µM
  TGI: 7.6 µM
UACC-257 melanoma
  GI50: 0.708 µM
  TGI: 6.62 µM
UACC-62 melanoma
  GI50: 1.06 µM
  TGI: 5.08 µM
UO-31 renal
  GI50: 0.297 µM
  TGI: 1.57 µM

— PubChem BioAssay (NCI)
